The values below come from patent US9586951B2 (FUJIFILM Corporation, priority 2013, dated 2017).

For the first assay, the target named is T1, ATM (Homo sapiens, UniProt Q13315).
T1 construct: detecting phosphorylation of Chk2 in a human non-small cell lung cancer cell line NCI-H460 (ATCC company); host or cells: NCI-H460 human non-small cell lung cancer cells
T1 sequence (Q13315 whole entry): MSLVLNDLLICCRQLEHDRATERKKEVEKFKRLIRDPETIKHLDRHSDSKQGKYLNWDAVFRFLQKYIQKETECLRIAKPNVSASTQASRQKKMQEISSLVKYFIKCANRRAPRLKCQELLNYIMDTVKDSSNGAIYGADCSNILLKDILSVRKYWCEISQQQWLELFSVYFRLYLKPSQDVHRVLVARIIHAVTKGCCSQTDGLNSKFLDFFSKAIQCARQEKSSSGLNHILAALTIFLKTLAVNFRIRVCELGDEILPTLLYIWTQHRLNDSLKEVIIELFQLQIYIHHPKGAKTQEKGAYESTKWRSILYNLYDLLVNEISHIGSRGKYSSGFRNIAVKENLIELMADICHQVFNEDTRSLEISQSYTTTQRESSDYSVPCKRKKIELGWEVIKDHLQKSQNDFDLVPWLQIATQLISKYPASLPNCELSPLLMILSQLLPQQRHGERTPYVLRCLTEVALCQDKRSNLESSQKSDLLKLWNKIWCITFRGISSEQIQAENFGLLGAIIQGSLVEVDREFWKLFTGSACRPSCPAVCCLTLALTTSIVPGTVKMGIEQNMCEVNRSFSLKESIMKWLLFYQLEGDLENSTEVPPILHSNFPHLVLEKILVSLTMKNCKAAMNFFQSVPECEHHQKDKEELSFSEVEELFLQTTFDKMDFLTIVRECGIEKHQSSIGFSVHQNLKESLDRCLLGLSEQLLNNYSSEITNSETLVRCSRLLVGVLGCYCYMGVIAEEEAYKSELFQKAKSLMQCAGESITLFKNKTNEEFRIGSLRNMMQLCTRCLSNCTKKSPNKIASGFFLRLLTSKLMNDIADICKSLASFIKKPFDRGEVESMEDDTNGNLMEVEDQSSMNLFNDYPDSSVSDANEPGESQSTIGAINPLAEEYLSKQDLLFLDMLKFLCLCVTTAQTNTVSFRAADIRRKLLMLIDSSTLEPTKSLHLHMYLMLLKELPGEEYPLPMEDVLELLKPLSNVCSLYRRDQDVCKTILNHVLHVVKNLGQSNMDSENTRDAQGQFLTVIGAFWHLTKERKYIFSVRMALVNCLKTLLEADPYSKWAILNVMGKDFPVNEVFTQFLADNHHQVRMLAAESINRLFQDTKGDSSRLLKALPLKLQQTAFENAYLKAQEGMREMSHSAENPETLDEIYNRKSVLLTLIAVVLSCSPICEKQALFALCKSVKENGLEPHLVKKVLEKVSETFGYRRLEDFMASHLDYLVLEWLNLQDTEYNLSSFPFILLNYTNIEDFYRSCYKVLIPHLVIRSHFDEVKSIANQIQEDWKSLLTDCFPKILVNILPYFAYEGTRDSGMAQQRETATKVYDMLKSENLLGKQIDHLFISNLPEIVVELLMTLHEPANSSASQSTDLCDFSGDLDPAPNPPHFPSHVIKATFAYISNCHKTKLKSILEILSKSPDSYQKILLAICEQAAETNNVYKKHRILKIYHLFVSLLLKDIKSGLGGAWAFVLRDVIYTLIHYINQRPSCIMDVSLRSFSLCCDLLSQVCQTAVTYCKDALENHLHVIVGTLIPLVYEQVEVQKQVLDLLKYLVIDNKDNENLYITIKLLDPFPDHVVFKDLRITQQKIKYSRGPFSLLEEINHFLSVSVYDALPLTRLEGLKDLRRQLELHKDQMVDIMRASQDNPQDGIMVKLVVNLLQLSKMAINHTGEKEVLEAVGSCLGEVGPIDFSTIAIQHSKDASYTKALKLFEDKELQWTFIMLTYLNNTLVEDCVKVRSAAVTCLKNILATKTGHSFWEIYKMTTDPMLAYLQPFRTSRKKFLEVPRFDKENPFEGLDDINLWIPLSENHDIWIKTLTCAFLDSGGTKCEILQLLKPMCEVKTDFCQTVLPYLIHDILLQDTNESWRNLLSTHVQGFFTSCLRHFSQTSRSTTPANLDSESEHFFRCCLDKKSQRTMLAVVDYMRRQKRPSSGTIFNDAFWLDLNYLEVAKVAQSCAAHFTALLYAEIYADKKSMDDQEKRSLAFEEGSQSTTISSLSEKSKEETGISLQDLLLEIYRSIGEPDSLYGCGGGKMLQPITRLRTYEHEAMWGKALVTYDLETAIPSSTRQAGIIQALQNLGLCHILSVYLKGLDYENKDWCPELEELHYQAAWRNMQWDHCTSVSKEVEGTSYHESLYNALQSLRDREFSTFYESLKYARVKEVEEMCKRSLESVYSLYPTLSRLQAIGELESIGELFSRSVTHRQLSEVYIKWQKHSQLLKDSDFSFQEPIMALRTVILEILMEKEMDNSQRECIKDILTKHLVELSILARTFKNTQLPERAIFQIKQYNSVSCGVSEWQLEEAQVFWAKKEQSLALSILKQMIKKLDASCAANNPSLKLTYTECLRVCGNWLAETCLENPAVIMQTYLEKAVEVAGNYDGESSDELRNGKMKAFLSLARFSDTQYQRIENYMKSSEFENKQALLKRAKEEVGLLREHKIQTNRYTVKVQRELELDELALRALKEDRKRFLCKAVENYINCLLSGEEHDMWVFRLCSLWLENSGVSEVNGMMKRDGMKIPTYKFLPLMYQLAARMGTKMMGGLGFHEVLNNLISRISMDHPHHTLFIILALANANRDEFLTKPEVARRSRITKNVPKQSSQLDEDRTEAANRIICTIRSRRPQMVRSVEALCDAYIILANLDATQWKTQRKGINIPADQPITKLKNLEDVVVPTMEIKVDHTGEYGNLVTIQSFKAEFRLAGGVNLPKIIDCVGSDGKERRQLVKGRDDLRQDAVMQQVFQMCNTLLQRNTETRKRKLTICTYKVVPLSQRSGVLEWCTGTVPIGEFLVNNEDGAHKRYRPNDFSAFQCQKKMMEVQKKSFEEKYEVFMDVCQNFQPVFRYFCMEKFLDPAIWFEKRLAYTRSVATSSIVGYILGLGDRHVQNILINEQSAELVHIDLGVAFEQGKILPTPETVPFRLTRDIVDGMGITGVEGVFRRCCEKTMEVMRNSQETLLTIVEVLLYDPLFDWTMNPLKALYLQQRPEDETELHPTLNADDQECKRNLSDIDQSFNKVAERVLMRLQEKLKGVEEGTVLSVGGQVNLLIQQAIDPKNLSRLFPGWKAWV
The assay is described as follows: ATM inhibition test (phosphorylation of Chk2 generated by ionizing radiation, AlphaScreen SureFire). The settings on record: ATM inhibitory activity, phosphorylated Chk2 in NCI-H460 cells, ionizing radiation 8Gy, 1 hour after test compound treatment. Format: cell-based. As for the experimental part: ATM inhibitory effects of a test compound were measured by detecting phosphorylation of Chk2 in a human non-small cell lung cancer cell line NCI-H460 (ATCC company). The level of phosphorylated Chk2 generated by an ionizing radiation was measured using AlphaScreen SureFire (TGR Biosciences).
The cells were seeded by 40000 cells per well in 96-well CellBIND® plates (Corning International Inc.), and incubated at 37° C. overnight in 5% CO2. […] 1 hour after a test compound treatment, half of the plates were irradiated with ionizing radiation 8Gy (Faxitron Bioptics, LLC, RX-650 type). The plates irradiated with ionizing radiation and the plates not being irradiated with ionizing radiation were incubated at 37° C. for 1 hour in 5% CO2. […] Subsequent operations were performed according to the instruction book of AlphaScreen SureFire. […] The inhibition ratio was calculated by the following equation. Inhibition ratio (%)=((signal of drug untreated wells in the plates irradiated with ionizing radiation−signal of drug treated wells in the plates irradiated with ionizing radiation)/(signal of drug untreated wells in the plates irradiated with ionizing radiation−signal of drug untreated wells in the plates not being irradiated with ionizing radiation))×100
In general terms: In Alpha technology, singlet oxygen from a donor bead excites a nearby acceptor bead.
`O=c1cc(N2CCOCC2)cc(-c2cccc3c2Sc2ccc(N4CC4CF)cc2S3)[nH]1` (centres unmarked) [Example 1-40, 6-(7-(2-(fluoromethyl)aziridin-1-yl)thianthren-1-yl)-4-morpholinopyridin-2(1H)-one] showed an IC50 of 100 to 500 nM.

The same assay, now with this note: phosphorylated Chk2 in NCI-H460 cells, ionizing radiation 8Gy, 1 hour after test compound treatment; read-out: ATM inhibitory activity.
Take `CC1CC(C)CN(CC(CO)Nc2ccc3c(c2)Sc2cccc(-c4cc(N5CCOCC5)cc(=O)[nH]4)c2S3)C1` (centres unmarked) [Example 1-37-5, 6-(7-((1-(3,5-Dimethylpiperidin-1-yl)-3-hydroxypropan-2-yl)amino)thianthren-1-yl)-4-morpholino pyridin-2 (1H)-one]: the IC50 was 100 to 500 nM.

In the case of `O=c1cc(N2CCOCC2)cc(-c2cccc3c2Oc2ccc(NC4CCCN(CCc5ccccc5)C4)cc2C3)[nH]1` (centres unmarked) [Example 2-19-3, 4-Morpholino-6-(7-((1-phenethylpiperidin-3-yl)amino)-9H-xanthen-4-yl)pyridin-2(1H)-one], the IC50 was 500 to 2000 nM.

Turning to `O=c1cc(N2CCOCC2)cc(-c2cccc3c2Sc2ccc(NC(CO)CN4CCOCC4)cc2S3)[nH]1` (centres unmarked) [Example 1-37-2, 6-(7-((1-Hydroxy-3-morpholinopropan-2-yl)amino)thianthren-1-yl)-4-morpholino pyridin-2(1H)-one], the IC50 is 100 to 500 nM. In the case of `Cc1ccnc(C(CO)Nc2ccc3c(c2)Cc2cccc(-c4cc(N5CCOCC5)cc(=O)[nH]4)c2O3)c1` (single isomer, unassigned) [Example 2-14-91, 6-(7-((2-hydroxy-1-(4-methylpyridin-2-yl)ethyl)amino)-9H-xanthen-4-yl)-4-morpholinopyridin-2(1H)-one], the IC50 is 100 to 500 nM. On the same count and under the same terms, the result for `CC(Nc1ccc2c(c1)Cc1cccc(-c3cc(N4CCOCC4)cc(=O)[nH]3)c1O2)c1ccnc(C#N)n1` (centres unmarked) [Example 2-14-58, 4-(1-((5-(4-Morpholino-6-oxo-1,6-dihydropyridin-2-yl)-9H-xanthen-2-yl)amino)ethyl)pyrimidine-2-carbonitrile] reads 100 to 500 nM. For the compound `Cc1ccc(C(Nc2ccc3c(c2)Sc2cccc(-c4cc(N5CCOCC5)cc(=O)[nH]4)c2S3)C2CNCCO2)nc1` (single isomer, unassigned) [Example 1-55-2, 6-(7-(((5-methylpyridin-2-yl)(morpholin-2-yl)methyl)amino)thianthren-1-yl)-4-morpholinopyridin-2(1H)-one], the IC50 was below 100 nM.

As to `CN1CCN(CCNc2ccc3c(c2)Cc2cccc(-c4cc(N5CCOCC5)cc(=O)[nH]4)c2S3)CC1` [Example 3-4-3, 6-(7-((2-(4-Methylpiperazin-1-yl)ethyl)amino)-9H-thioxanthen-4-yl)-4-morpholino pyridin-2 (1H)-one], the IC50 lay within 500 to 2000 nM.

On to `COc1cncc(CNc2ccc3c(c2)Cc2cccc(-c4nc(N5CCOCC5)cc(=O)[nH]4)c2O3)c1` [Example 2-52-2, 2-(7-(((5-Methoxypyridin-3-yl)methyl)amino)-9H-xanthen-4-yl)-6-morpholino pyrimidine-4(3H)-one], for which the IC50 lay in the range of 100 to 500 nM.

As to `COc1cncc(C(C)Nc2ccc3c(c2)Cc2cccc(-c4cc(N5CCOCC5)cc(=O)[nH]4)c2O3)c1` (racemic) [Example 2-11-2, 6-(7-((1-(5-Methoxypyridin-3-yl)ethyl)amino)-9H-xanthen-4-yl)-4-morpholinopyridin-2(1H)-one], the IC50 lay in the range of 100 to 500 nM. As to `Cc1cccc(C(CCO)Nc2ccc3c(c2)Sc2cccc(-c4cc(N5CCOCC5)cc(=O)[nH]4)c2S3)n1` (centres unmarked) [Example 1-34-5, 6-(7-((3-Hydroxy-1-(6-methylpyridin-2-yl)propyl)amino)thianthren-1-yl)-4-morpholino pyridin-2(1H)-one], the IC50 was 100 to 500 nM. “6-(7-((4,4-Difluoropiperidin- 1-yl)methyl)-9H-xanthen-4- yl)-4-morpholino pyridin-2 (1H)-one [Example 2-2-39]”: the IC50 is below 100 nM. On the same count and under the same terms, with `O=c1cc(N2CCOCC2)cc(-c2cccc3c2Oc2ccc(NCc4ccco4)cc2C3)[nH]1` [Example 2-14-33, 6-(7-((Furan-2-ylmethyl)amino)-9H-xanthen-4-yl)-4-morpholino pyridin-2(1H)-one] the figure was 100 to 500 nM; with `O=c1cc(N2CCOCC2)cc(-c2cccc3c2Oc2ccc(NC4CCN(CCc5ccccc5)CC4)cc2C3)[nH]1` [Example 2-28-29, 4-Morpholino-6-(7-((1-phenethylpiperidin-4-yl)amino)-9H-xanthen-4-yl) pyridin-2(1H)-one], 100 to 500 nM; with `O=c1cc(N2CCOCC2)cc(-c2cccc3c2Oc2ccc(NC4CCN(c5cccnc5)CC4)cc2C3)[nH]1` [Example 2-2-28, 4-Morpholino-6-(7-((l-(pyridin-3-yl)piperidin-4-yl)amino)-9H-xanthen-4-yl) pyridin-2(1H)-one], 100 to 500 nM. With `COc1cc(OC)nc(CN2CCC(Nc3ccc4c(c3)Cc3cccc(-c5cc(N6CCOCC6)cc(=O)[nH]5)c3O4)CC2)n1` [Example 2-28-20, 6-(7-((1-((4,6-Dimethoxypyrimidin-2-yl)methyl)piperidin-4-yl)amino)-9H-xanthen-4-yl)-4-morpholino pyridin-2(1H)-one], the IC50 lay in the range of 100 to 500 nM. The same measure, in the same setting: with `O=c1cc(N2CCOCC2)cc(-c2cccc3c2Oc2ccc(NC4CCN(Cc5cnccn5)CC4)cc2C3)[nH]1` [Example 2-28-7, 4-Morpholino-6-(7-((1-(pyrazin-2-ylmethyl)piperidin-4-yl)amino)-9H-xanthen-4-yl)pyridin-2 (1H)-one] the figure was 500 to 2000 nM; with `COCCN(C)CCC(Nc1ccc2c(c1)Sc1cccc(-c3cc(N4CCOCC4)cc(=O)[nH]3)c1S2)c1ccc(C)cn1` (single isomer, unassigned) [Example 10-3-3, 6-(7-((3-((2-Methoxyethyl) (methyl)amino)-1-(5-methylpyridin-2-yl)propyl)amino)thiarnthren-l-yl)-4-morpholino pyridin-2(1H)-one], below 100 nM; with `Cc1cccc(C(CO)Nc2ccc3c(c2)Cc2cccc(-c4cc(N5CCOCC5)cc(=O)[nH]4)c2O3)n1` (single isomer, unassigned) [Example 2-14-92-1, 6-(7-((2-hydroxy-1-(6-methylpyridin-2-yl)ethyl)amino)-9H-xanthen-4-yl)-4-morpholinopyridin-2(1H)-one], 500 to 2000 nM.

`Cc1ccc(C(Nc2ccc3c(c2)Sc2cccc(-c4cc(N5CCOCC5)cc(=O)[nH]4)c2S3)[C@H]2CCN(C)C2)nc1` (single isomer, unassigned) [Example 1-56-15]: the IC50 was below 100 nM. With `CN1CCC(Nc2ccc3c(c2)Cc2cccc(-c4cc(N5CCOCC5)cc(=O)[nH]4)c2S3)CC1` [Example 3-8-13, 6-(7-((1-Methylpiperidin-4-yl)amino)-9H-thioxanthen-4-yl)-4-morpholino pyridin-2 (1H)-one], the IC50 lay in the range of 100 to 500 nM. On the same count and under the same terms, the result for `O=c1cc(N2CCOCC2)cc(-c2cccc3c2Sc2ccc(NCc4cncc(-n5ccnc5)c4)cc2S3)[nH]1` [Example 1-12-20, 6-(7-(((5-(1H-Imidazol-1-yl)pyridin-3-yl)methyl)amino)thianthren-1-yl)-4-morpholino pyridin-2(1H)-one] reads below 100 nM. Same read-out and setting: the result for `CC(Nc1ccc2c(c1)Cc1cccc(-c3cc(N4CCOCC4)cc(=O)[nH]3)c1O2)c1nccc(CF)n1` (centres unmarked) [Example 2-14-64, 6-(7-((1-(4-(Fluoromethyl)pyrimidin-2-yl)ethyl)amino)-9H-xanthen-4-yl)-4-morpholino pyridin-2(1H)-one] reads 100 to 500 nM. For `CCC(Nc1ccc2c(c1)Sc1cccc(-c3cc(N4CCOCC4)cc(=O)[nH]3)c1S2)[C@H](CC)N1CCOCC1` (stereo partly drawn) [Example 1-21-4, 4-Morpholino-6-(7-(((4S)-4-morpholinohexan-3-yl)amino)thianthren-1-yl) pyridin-2(1H)-one], the IC50 was in the range of 100 to 500 nM. On the same count and under the same terms, the result for `O=c1cc(N2CCOCC2)cc(-c2cccc3c2Sc2ccc(NC4CCN(C5CCOC5)C4)cc2S3)[nH]1` (centres unmarked) [Example 1-24-14, 4-Morpholino-6-(7-((1-(tetrahydrofuran-3-yl)pyrrolidin-3-yl)amino)thianthren-1-yl)pyridin-2 (1H)-one] reads 100 to 500 nM; that for `O=c1cc(N2CCOCC2)cc(-c2cccc3c2Oc2ccc(NC4CCCN(CCc5ccccc5)CC4)cc2C3)[nH]1` (centres unmarked) [Example 2-19-5, 4-Morpholino-6-(7-((1-phenethylazepan-4-yl)amino)-9H-xanthen-4-yl)pyridin-2(1H)-one], 100 to 500 nM. The same measure, in the same setting: with `Cc1ccc(C(CC(C)C)Nc2ccc3c(c2)Sc2cccc(-c4cc(N5CCOCC5)cc(=O)[nH]4)c2S3)nc1` (centres unmarked) [Example 1-12-120, 6-(7-((3-Methyl-1-(5-methylpyridin-2-yl)butyl)amino)thianthren-1-yl)-4-morpholino pyridin-2(1H)-one] the figure was 100 to 500 nM.

Take `Nc1ncc(CNc2ccc3c(c2)Cc2cccc(-c4cc(N5CCOCC5)cc(=O)[nH]4)c2O3)cn1` [Example 2-2-15, 6-(7-(((2-Aminopyrimidin-5-yl)methyl)amino)-9H-xanthen-4-yl)-4-morpholino pyridin-2(1H)-one]: the IC50 fell in the range of 500 to 2000 nM. For the compound `O=C1CCN1c1cncc(CNc2ccc3c(c2)Cc2cccc(-c4cc(N5CCOCC5)cc(=O)[nH]4)c2O3)c1` [Example 2-2-70, 4-Morpholino-6-(7-(((5-(2-oxoazetidin-1-yl)pyridin-3-yl)methyl)amino)-9H-xanthen-4-yl)pyridin-2(1H)-one], the IC50 is 100 to 500 nM.
